Legend:
Assay in all cases: relative viability (nuclei count vs DMSO), 5 days (fraction); higher = more cells survive
[1] = compound: COc1cc2nccc(Oc3ccc(NC(=O)C4(C(=O)Nc5ccc(F)cc5)CC4)cc3)c2cc1OC [Cabozantinib] + CC1(C)CCC(c2ccc(Cl)cc2)=C(CN2CCN(c3ccc(C(=O)NS(=O)(=O)c4ccc(N[C@H](CCN5CCOCC5)CSc5ccccc5)c(S(=O)(=O)C(F)(F)F)c4)cc3)CC2)C1 [Navitoclax] (partner 0.5 µM)
Procedure, shortened: (§1)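 Relative viability equals treated-well nuclei counts divided by vehicle-well nuclei counts. Counts came from 4× images of lung cancer cell lines grown in 1536-well plates for 5 days after pin-tool dosing on the day after seeding. Dosing used one drug alone or a fixed anchor-drug dose plus five library-drug doses (not always all listed) in √10 steps, and values are medians of duplicate plates.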

[2] = compound: COc1cc2nccc(Oc3ccc(NC(=O)C4(C(=O)Nc5ccc(F)cc5)CC4)cc3)c2cc1OC [Cabozantinib] + CC(=O)c1c(C)c2cnc(Nc3ccc(N4CCNCC4)cn3)nc2n(C2CCCC2)c1=O [Palbociclib] (partner 0.5 µM)
Procedure, shortened: as §1

Zosuquidar + Pemetrexed = compound: O[C@@H](COc1cccc2ncccc12)CN1CCN([C@@H]2c3ccccc3[C@@H]3[C@H](c4ccccc42)C3(F)F)CC1 [Zosuquidar] + Nc1nc2[nH]cc(CCc3ccc(C(=O)N[C@@H](CCC(=O)O)C(=O)O)cc3)c2c(=O)[nH]1 [Pemetrexed] (partner 0.2 µM)
Procedure, shortened: as §1

Kobe2602 + Navitoclax = compound: C1=CC(=CC=C1NC(=S)NNC2=C(C=C(C=C2[N+](=O)[O-])C(F)(F)F)[N+](=O)[O-])F [Kobe2602] + CC1(C)CCC(c2ccc(Cl)cc2)=C(CN2CCN(c3ccc(C(=O)NS(=O)(=O)c4ccc(N[C@H](CCN5CCOCC5)CSc5ccccc5)c(S(=O)(=O)C(F)(F)F)c4)cc3)CC2)C1 [Navitoclax] (partner 0.5 µM)
Procedure, shortened: as §1

Cell Line | relative viability ([1]; first compound 0.02 µM) | relative viability ([1]; first compound 0.06325 µM) | relative viability ([1]; first compound 0.2 µM) | relative viability ([1]; first compound 0.6325 µM) | relative viability ([1]; first compound 2 µM) | relative viability ([2]; first compound 0.02 µM) | relative viability ([2]; first compound 0.06325 µM) | relative viability ([2]; first compound 0.2 µM) | relative viability ([2]; first compound 0.6325 µM) | relative viability ([2]; first compound 2 µM) | relative viability (Zosuquidar + Pemetrexed; first compound 0.01 µM) | relative viability (Zosuquidar + Pemetrexed; first compound 0.03162 µM) | relative viability (Zosuquidar + Pemetrexed; first compound 0.1 µM) | relative viability (Zosuquidar + Pemetrexed; first compound 0.3162 µM) | relative viability (Zosuquidar + Pemetrexed; first compound 1 µM) | relative viability (Kobe2602 + Navitoclax; first compound 0.2 µM) | relative viability (Kobe2602 + Navitoclax; first compound 0.6325 µM) | relative viability (Kobe2602 + Navitoclax; first compound 2 µM) | relative viability (Kobe2602 + Navitoclax; first compound 6.325 µM) | relative viability (Kobe2602 + Navitoclax; first compound 20 µM)
NCI-H1915 | 0.778 | 0.823 | 0.801 | 0.732 | 0.769 | 0.584 | 0.57 | 0.518 | 0.506 | 0.55 | 0.518 | 0.527 | 0.413 | 0.489 | 0.474 | 0.796 | 0.827 | 0.797 | 0.791 | 0.795
NCI-H1650 | 1.19 | 1.5 | 1.07 | 1.23 | 1.06 | 0.361 | 0.301 | 0.27 | 0.36 | 0.486 | 0.378 | 0.373 | 0.327 | 0.479 | 0.401 | 1.08 | 1.33 | 0.948 | 1.36 | 1.22
NCI-H647 | 0.994 | 1.15 | 1.06 | 1.11 | 0.886 | 0.47 | 0.456 | 0.406 | 0.335 | 0.358 | 0.188 | 0.177 | 0.178 | 0.168 | 0.139 | 1.16 | 1.1 | 1.06 | 1.04 | 1.13
HCC-366 | 1.15 | 1.11 | 1.16 | 1.03 | 1.06 | 0.491 | 0.503 | 0.399 | 0.364 | 0.451 | 0.177 | 0.155 | 0.147 | 0.145 | 0.184 | 1.07 | 0.98 | 0.832 | 1.06 | 1.06
NCI-H2087 | 1.03 | 1.1 | 1.06 | 0.985 | 0.981 | 0.187 | 0.302 | 0.273 | 0.249 | 0.253 | 0.597 | 0.667 | 0.62 | 0.643 | 0.637 | 0.959 | 0.934 | 1.01 | 1.03 | 0.849
SK-LU-1 |  | 1.09 | 0.967 | 0.852 | 0.988 | 0.357 | 0.486 | 0.439 | 0.344 | 0.364 | 0.975 | 0.795 | 1.06 | 1.03 | 0.962 | 0.818 | 0.984 | 0.713 | 1.01 | 0.967
HOP-62 | 1.13 | 0.987 | 1.07 | 1.05 | 1.13 | 0.503 | 0.488 | 0.416 | 0.506 | 0.491 | 0.256 | 0.38 | 0.341 | 0.308 | 0.295 | 1.01 | 1.03 | 0.986 | 1 | 1.04
NCI-H2126 | 0.828 | 0.84 | 0.869 | 0.831 | 0.896 | 0.315 | 0.37 | 0.336 | 0.364 | 0.332 | 0.677 | 0.625 | 0.51 | 0.697 | 0.737 | 0.883 | 0.888 | 0.799 | 0.776 | 0.788
NCI-H441 |  | 0.508 | 0.393 | 0.578 | 0.662 | 0.157 | 0.286 | 0.181 | 0.23 | 0.184 | 0.29 | 0.286 | 0.249 | 0.23 | 0.268 | 0.602 | 0.807 | 0.601 | 0.575 | 0.679
NCI-H2170 | 0.579 | 0.611 | 0.559 | 0.652 | 0.62 | 0.408 | 0.407 | 0.355 | 0.369 | 0.438 | 0.283 | 0.263 | 0.263 | 0.269 | 0.255 | 0.65 | 0.597 | 0.56 | 0.57 | 0.622
SW 1573 | 1.04 | 1.17 | 0.887 | 1 | 0.81 | 0.422 | 0.456 | 0.364 | 0.39 | 0.308 | 0.781 | 0.751 | 0.952 | 0.941 | 0.786 | 1.05 | 1.14 | 0.96 | 1.02 | 0.946
H3255 | 0.491 | 0.676 |  | 0.687 | 0.553 | 0.317 | 0.351 |  | 0.339 | 0.325 | 0.574 | 0.569 | 0.506 | 0.574 | 0.535 | 0.521 | 0.562 | 0.516 | 0.558 | 0.548
EMC-BAC-2 | 1.16 | 1.36 | 1.2 | 1.14 | 1.22 | 0.531 | 0.551 | 0.552 | 0.533 | 0.543 | 0.459 | 0.417 | 0.441 | 0.457 | 0.335 | 1.16 | 1.17 | 1.11 | 1.13 | 1.16
CAL-12T | 1.51 | 1.2 | 1.37 | 1.17 | 1.46 | 0.435 | 0.583 | 0.408 | 0.497 | 0.572 | 1.08 | 1.15 | 0.983 | 1.23 | 1.1 | 1.2 | 1.25 | 1.31 | 1.39 | 1.2
NCI-H838 | 1.21 | 1.19 | 1.12 | 1.03 | 1.03 | 0.216 | 0.244 | 0.231 | 0.218 | 0.21 | 0.239 | 0.236 | 0.254 | 0.251 | 0.268 | 1.17 | 1.22 | 1.12 | 1.13 | 1.17

Reference: the supplement of paper PMC10307832
